The species named for this assay is Bos taurus. As to the kind of experiment: In vitro ability to inhibit cartilage breakdown by using 1L-1beta stimulated bovine nasal cartilage assay. The format is functional.
By IC50 is commonly meant the midpoint of a concentration-inhibition curve. `O=c1c2cccnc2sn1-c1ccc(Cl)cc1`: the IC50 came out at 3.7 µM.

Turning to `COc1ccc(-n2sc3ccccc3c2=O)cc1`, the concentration for half-maximal inhibition (IC50) is greater than 30 µM.

In the case of `Nc1ccccc1C(=O)Nc1ccccc1`, the IC50 was greater than 30 µM.

As for `O=c1c2ccccc2sn1-c1ccccc1`, inhibition was half-maximal at 3 µM (IC50).

For the compound `COc1ccc(-n2sc3ncccc3c2=O)cc1`, the IC50 was found to be 13.5 µM.

Take `O=c1c2ccccc2sn1-c1ccc(Cl)cc1`: the IC50 was determined as 3.6 µM.

`O=c1ccsn1-c1ccccc1`: the concentration for half-maximal inhibition (IC50) was greater than 30 µM.

Consider `CNC(=O)C(Cc1ccc(OC)cc1)NC(=O)[C@H](CC(C)C)[C@H](C)C(=O)NO` (single isomer, unassigned), for which it took 3 µM to reach half-maximal inhibition (IC50).

On to `O=c1c2ccccc2[se]n1-c1ccccc1` [EBSELEN], for which the IC50 worked out at 13 µM.

Compound `COc1ccc2c(c1)c(CC(=O)O)c(C)n2C(=O)c1ccc(Cl)cc1` [INDOMETHACIN] displayed an IC50 greater than 30 µM.

With `COc1ccc2cc([C@H](C)C(=O)O)ccc2c1` [NAPROXEN], the IC50 was greater than 30 µM.

Compound `O=C(Nc1ccccc1)c1ccccc1O` [SALICYLANILIDE] gave an IC50 greater than 30 µM.

Take `CN(C)[C@@H]1C(O)=C(C(N)=O)C(=O)[C@@]2(O)C(O)=C3C(=O)c4c(O)cccc4[C@@](C)(O)[C@H]3C[C@@H]12` [TETRACYCLINE]: the IC50 was greater than 30 µM.

The record behind these values is ChEMBL document CHEMBL1127174, “Inhibition of cartilage breakdown by isothiazolones” (Bioorg Med Chem Lett, 1993).
